Measured values as given in patent US20220313682A1, “Pharmaceutical Compositions of (6aS)-6-methyl-5,6,6a,7-tetrahydro-4H-dibenzo[de,g]quinoline-10,11-diol” (Aclipse One Inc., priority 2019, published 2022).

Test: Solubility in aqueous media / aqueous buffer solutions
Type: physicochemical

| solubility in the aqueous media at various pH (free base, aqueous media at various pH) | Structure (SMILES) | solubility in the aqueous buffer solutions (hydrochloride salt, aqueous buffer solutions) |
| --- | --- | --- |
| low solubility | CN1CCc2cccc3c2[C@@H]1Cc1ccc(O)c(O)c1-3 [(6aS)-6-methyl-5,6,6a,7-tetrahydro-4H-dibenzo[de,g]quinoline-10,11-diol] | – |
| – | CN1CCc2cccc3c2[C@@H]1Cc1ccc(O)c(O)c1-3.Cl [(6aS)-6-methyl-5,6,6a,7-tetrahydro-4H-dibenzo[de,g]quinoline-10,11-diol hydrochloride] | low solubility |
